Experimental data reported in US4891432A, “Phenoxy imidazole compound” (Yamanouchi Pharmaceutical Co., Ltd., priority 1986, dated 1990).
Like-named read-outs stand apart in the source and are kept apart here.

What was measured:
Ehrlich solid tumor [1] = experiment: Test 5: Antitumor test against Ehrlich solid tumor; type: in vivo, ddY/SLC mice; conditions: intraperitoneal (1 to 9 days), day 21
Experimental: Antitumor test against Ehrlich solid tumor
Ehrlich tumor cells, 3×10^6, on Day 6 after intraperitoneal transplantation to ddY/SLC mice, were subcutaneously transplanted in the left abdomen of ddY/SLC mice (5 week age, male)--10 mice to a group (37 mice for the control group). The active component was intraperitoneally administered in a definite dose 24 hours after the transplantation, according to the scheduled shown in Table 4. The tumor growth inhibition was assessed by measuring the weight of each tumor on the 21th day after transplantation, and determining the tumor growth inhibition rate of the active component-administered group to the control group, according to the following equation.
(§1) Growth inhibition rate (%)=(C-T)/C×100
(§2) T: mean tumor weight in the active-component-administered group
(§3) C: mean tumor weight on the control group

[2] = test system: mouse leukemia L1210 cells; experiment: Effectiveness against mouse leukemia L1210 cells (in vitro test), cytotoxicity by trypan blue dye exclusion; type: cell-based; conditions: Mus musculus, read-out: IC50 (mean dose producing 50%-killing of tumor cells)
Experimental: Effectiveness against mouse leukemia L1210 cells (in vitro test)
A suspension of cells in culture medium was transferred into wells in a microplate in an amount of 1×10^5 L1210-cells/well. Test sample diluted with a culture medium was added to the suspension in each well, and the mixture was incubated on the medium at 37° C. for 3 days in an atmosphere of air containing 5% carbon dioxide.
Thereafter, the incubated cells were recovered from the microplate and the number of live cells was counted by the dye exclusion test using a 0.5% solution of trypan blue and by using a hemocytometer.

Ehrlich solid tumor [3] = experiment: Test 2: Anti-tumor test against Ehrlich solid tumor; type: in vivo, ddY/SLC mice; conditions: Mus musculus, Ehrlich, ip, 504 h, read-out: Growth Inhibition Rate
Experimental: Anti-tumor test against Ehrlich solid tumor
Ehrlich tumor cells, 2×10^6, on Day 7 after intraperitoneal transplantation to ddY/SLC mice, were subcutaneously transplanted in the left abdomen of ddY/SLC mice (5week age, male)--10 to a group. The active component was intraperitoneally administered in a definite dose 24 hours after the transplantation. (administration: once per one day; 1 through 9 days)
as §1
T: mean tumor weight in the active component-administered group
c: mean tumor weight in the control group

[4] = test system: mouse mammalian MM-46 tumor; experiment: Test 3: Test against mouse mammalian MM-46 tumor; type: in vivo, C3H/He/SLC mice
Experimental: Test against mouse mammalian MM-46 tumor
MM-46 tumor cells, 1×10^6, on day 6 after intraperitonal transplantation to C3 H/He/SLC mice, were intraperitoneally transplanted to C3H/He/SlC mice (6 week age, male)--10 mice to a group. The active component was orally administered in a definite dose 24 hours after the transplantation according to the schedule shown in Table 2. The tumor growth inhibition was evaluated as the percentage of the median survival day of the administered group versus that of the control group, according to the following equation.
T: median survival day of the administered group
C: median survival day of the control group

[5] = Toxicity test (acute toxicity); type: in vivo; conditions: mouse, in vivo, male ddY mice
Experimental: (§4) The active component (the Compound of Example 45) was orally administered to ddY mice (mean body weight of 30 g, male). […] Accordingly, the acute toxicity of the Compound is greater than 1,600 mg/kg (oral administration).
(§5) Accordingly, the acute toxicity of the Compound in the case of intraperitoneal administration is greater than 800 mg/kg.

ddY mice = experiment: Toxicity test (acute toxicity); type: in vivo; conditions: intraperitoneal, up to a dose of 800 mg/kg
Experimental: as §4, §5

mouse M5076 solid tumor = experiment: Test 4: Anti-tumor test against mouse M5076 solid tumor; type: in vivo, BDF1/SLC mice; conditions: p.o. (1-9 days), day 14
Experimental: Anti-tumor test against mouse M5076 solid tumor
M5076 Tumor cells, 1×10^6, on day 14 after intraperitoneal transplantation to C57BL16/cRJ mice, were subcutaneously transplanted to the left abdomen of BDF1/SLC mice (8 week age, male)--10 mice to a group (20 mice for the control group). The active component was orally administered in a definite dose 24 hours after the transplantation according to the schedule shown in Table 3. The tumor growth inhibition was assessed by measuring the weight of each tumor on days 14 after the transplantation, and determining the tumor growth inhibition rate of the active component-administered group to the control group, according to the following equation.
as §1, §2, §3

O=c1[nH]cc(F)c(=O)[nH]1 [5-Fluorouracil, reference compound]
Growth Inhibition Rate (Ehrlich solid tumor [1]; 12.5 mg/kg): 36.4%
Weight of Tumor (Ehrlich solid tumor [1]; 12.5 mg/kg): 2.55 ± 1.21 g
Growth Inhibition Rate (Ehrlich solid tumor [1]; 25 mg/kg): 45.6%
Weight of Tumor (Ehrlich solid tumor [1]; 25 mg/kg): 2.18 ± 0.96 g
IC50 ([2]; L1210, 72 h): 0.41 µM
inhibition in vivo at 25 mg/kg (Ehrlich solid tumor [3]): 61%

CC(C)(CCCCOc1ccc(OCCCCCn2ccnc2)cc1)C(=O)O [Example 45, 6-[p-[5-(1-imidazolyl)pentyloxy]phenoxy]-2,2-dimethylhexanoic acid]
Median Survival Day ([4]; 100 mg/kg, p.o. (1-6 days)): 8.0 days
No. of 20-day Survivors ([4]; 100 mg/kg, p.o. (1-6 days)): 0/10
T/C (median survival) ([4]; 100 mg/kg, p.o. (1-6 days)): 114.3%
Median Survival Day ([4]; 200 mg/kg, p.o. (1-6 days)): 8.0 days
No. of 20-day Survivors ([4]; 200 mg/kg, p.o. (1-6 days)): 0/10
T/C (median survival) ([4]; 200 mg/kg, p.o. (1-6 days)): 114.3%
Median Survival Day ([4]; 400 mg/kg, p.o. (1-6 days)): 8.0 days
No. of 20-day Survivors ([4]; 400 mg/kg, p.o. (1-6 days)): 0/10
T/C (median survival) ([4]; 400 mg/kg, p.o. (1-6 days)): 114.3%
Median Survival Day ([4]; 800 mg/kg, p.o. (1-8 days)): 10.0 days
No. of 20-day Survivors ([4]; 800 mg/kg, p.o. (1-8 days)): 0/10
T/C (median survival) ([4]; 800 mg/kg, p.o. (1-8 days)): 142.9%
Growth Inhibition Rate (Ehrlich solid tumor [1]; 50 mg/kg): 29.9%
Weight of Tumor (Ehrlich solid tumor [1]; 50 mg/kg): 2.81 ± 1.55 g
Growth Inhibition Rate (Ehrlich solid tumor [1]; 100 mg/kg): 49.1%
Weight of Tumor (Ehrlich solid tumor [1]; 100 mg/kg): 2.04 ± 1.26 g
Growth Inhibition Rate (Ehrlich solid tumor [1]; 200 mg/kg): 63.6%
Weight of Tumor (Ehrlich solid tumor [1]; 200 mg/kg): 1.46 ± 0.50 g
Growth Inhibition Rate (Ehrlich solid tumor [1]; 400 mg/kg): 57.6%
Weight of Tumor (Ehrlich solid tumor [1]; 400 mg/kg): 1.70 ± 0.60 g
LD50 ([5]; ip, intraperitoneal administration): > 800 mg/kg
LD50 ([5]; oral administration): > 1600 mg/kg
death (ddY mice): no example of death was noted
Growth Inhibition Rate (mouse M5076 solid tumor; 100 mg/kg): 13.1%
Weight of Tumor (mouse M5076 solid tumor; 100 mg/kg): 0.53 ± 0.09 g
Growth Inhibition Rate (mouse M5076 solid tumor; 200 mg/kg): 19.7%
Weight of Tumor (mouse M5076 solid tumor; 200 mg/kg): 0.49 ± 0.14 g
Growth Inhibition Rate (mouse M5076 solid tumor; 400 mg/kg): 11.5%
Weight of Tumor (mouse M5076 solid tumor; 400 mg/kg): 0.54 ± 0.12 g
Growth Inhibition Rate (mouse M5076 solid tumor; 800 mg/kg): 23.0%
Weight of Tumor (mouse M5076 solid tumor; 800 mg/kg): 0.47 ± 0.09 g
IC50 ([2]; 72 h, L1210 cells, 3 days, 37° C.): 42.5 µM

O=c1[nH]c(=O)n(C2CCCO2)cc1F (stereo not drawn) [Tetrahydrofuryl-5-fluorouracil, reference compound]
Median Survival Day ([4]; 100 mg/kg, p.o. (1-6 days)): 6.0 days
No. of 20-day Survivors ([4]; 100 mg/kg, p.o. (1-6 days)): 0/10
T/C (median survival) ([4]; 100 mg/kg, p.o. (1-6 days)): 85.7%
Median Survival Day ([4]; 200 mg/kg, p.o. (1-6 days)): 7.0 days
No. of 20-day Survivors ([4]; 200 mg/kg, p.o. (1-6 days)): 0/10
T/C (median survival) ([4]; 200 mg/kg, p.o. (1-6 days)): 100%
Growth Inhibition Rate (mouse M5076 solid tumor; 100 mg/kg): 14.8%
Weight of Tumor (mouse M5076 solid tumor; 100 mg/kg): 0.52 ± 0.19 g
Growth Inhibition Rate (mouse M5076 solid tumor; 200 mg/kg): 39.3%
Weight of Tumor (mouse M5076 solid tumor; 200 mg/kg): 0.37 ± 0.08 g
